Patent US6444617B1, “Fused-heterocycle dicarboxylic acid diamide derivatives or salts thereof, herbicide and usage thereof” (Nihon Nohyaku Co., Ltd., priority 1998, dated 2002)

What was measured:
Type in all cases: in vivo
[1] = test system: barnyard grass (Echinochloa crus-galli Beauv.); experiment: Test Example 1: herbicidal effect on paddy field weeds before emergence; conditions: Dosage 5 kg/ha
Procedure, shortened: (§1)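 Seeds of both weeds, still ungerminated, in soil pots held under paddy conditions received a set dose of test solution as soil treatment. After twenty-one days, control relative to untreated pots was calculated and rated on a scoring scale.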

[2] = test system: bulrush (Scirpus juncoides Roxb.); experiment: as above; conditions: Dosage 5 kg/ha
Procedure, shortened: as §1

[3] = test system: barnyard grass (Echinochloa crus-galli Beauv.); experiment: Test Example 2: herbicidal effect on paddy field weeds after emergence; conditions: Dosage 5 kg/ha; one-leaved stage; 21 days after treatment
Procedure, shortened: (§2)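 Weeds were sown in 1/10000 are pots of soil flooded to paddy conditions and grown to the one-leaf stage, then the soil was treated with a solution of compound at a predetermined dosage.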

[4] = test system: bulrush (Scirpus juncoides Roxb.); experiment: as above; conditions: Dosage 5 kg/ha; one-leaved stage; 21 days after treatment
Procedure, shortened: as §2

[5] = test system: monochoria (Monochoria vaginalis Presl); experiment: as above; conditions: Dosage 5 kg/ha; one-leaved stage; 21 days after treatment
Procedure, shortened: as §2

[6] = test system: barnyard grass (Echinochloa crus-galli Beauv.), Ec; experiment: Test Example 3: herbicidal effect on upland weeds before emergence; conditions: dosage 5 kg/ha
Procedure, shortened: (§3)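 Pre-emergence spray of liquid prep, compound at set concentration; read at 14 d post-treatment; weed-kill rate calculated, effect graded.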

[7] = test system: bird's eye speedwell (Veronica persica Poir.), Vp; experiment: as above; conditions: dosage 5 kg/ha
Procedure, shortened: as §3

[8] = test system: cleavers (Galium aparine L.), Ga; experiment: as above; conditions: dosage 5 kg/ha
Procedure, shortened: as §3

[9] = test system: cocklebur (Xanthium strumarium L.), Xs; experiment: as above; conditions: dosage 5 kg/ha
Procedure, shortened: as §3

[10] = test system: forxtail grass (Alopecurus aequalis var. amurensis Ohwi), Am; experiment: as above; conditions: foxtail grass, dosage 5 kg/ha
Procedure, shortened: as §3

[11] = test system: velvetleaf (Abutilon theophtasti L.), At; experiment: as above; conditions: dosage 5 kg/ha
Procedure, shortened: as §3

[12] = test system: soybean plant (So); experiment: Test Example 3: phytotoxicity to upland crop plants, treatment before emergence; conditions: dosage 5 kg/ha
Procedure, shortened: (§4)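 Pre-emergence spray, test compound at prescribed conc. in liquid formulation; crop injury (soybean, wheat) read at day 14, scored by criterion.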

[13] = test system: wheat (Wh); experiment: as above; conditions: dosage 5 kg/ha
Procedure, shortened: as §4

[14] = test system: barnyard grass (Echinochloa crus-galli Beauv.), Ec; experiment: Test Example 4: herbicidal effect on upland weeds after emergence; conditions: dosage 5 kg/ha; sprayed after emergence; judged 14 days after treatment
Procedure, shortened: (§5)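 Post-emergence foliar spray, compound at prescribed concentration, applied at defined leaf stages; weeds plus soybean/wheat grown in soil vats. Read-out: weed-killing rate and crop injury, 14 d post-treatment.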

[15] = test system: bird's eye speedwell (Veronica persica Poir.), Vp; experiment: as above; conditions: dosage 5 kg/ha; sprayed after emergence; judged 14 days after treatment
Procedure, shortened: as §5

[16] = test system: cleavers (Galium aparine L.), Ga; experiment: as above; conditions: dosage 5 kg/ha; sprayed after emergence; judged 14 days after treatment
Procedure, shortened: as §5

[17] = test system: cocklebur (Xanthium strumarium L.), Xs; experiment: as above; conditions: dosage 5 kg/ha; sprayed after emergence; judged 14 days after treatment
Procedure, shortened: as §5

[18] = test system: forxtail grass (Alopecurus aequalis var. amurensis Ohwi), Am; experiment: as above; conditions: dosage 5 kg/ha; sprayed after emergence; judged 14 days after treatment
Procedure, shortened: as §5

[19] = test system: velvetleaf (Abutilon theophtasti L.), At; experiment: as above; conditions: dosage 5 kg/ha; sprayed after emergence; judged 14 days after treatment
Procedure, shortened: as §5

[20] = test system: soybean plant; experiment: Test Example 4: phytotoxicity to upland crop plants, treatment after emergence; conditions: dosage 5 kg/ha, sprayed after emergence, judged 14 days after treatment
Procedure, shortened: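 Upland weeds and crop plants (soybean, wheat) are grown from seed in soil until they reach given leaf stages, then treated by spraying with the compound-containing agent; effects are judged two weeks later.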

[21] = test system: wheat; experiment: as above; conditions: dosage 5 kg/ha, sprayed after emergence, judged 14 days after treatment
Procedure, shortened: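 Weeds, soybean and wheat were sown in soil-filled vats, covered with soil and grown to set leaf stages before a post-emergence spray of an agent containing the compound at a prescribed concentration. Weed-killing rate and crop phytotoxicity were assessed 14 days after treatment.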

SMILES | Pre-emergence treatment Barnyard grass (herbicidal effect) [1] | Pre-emergence treatment Bulrush (herbicidal effect) [2] | Post-emergence treatment Barnyard grass (herbicidal effect) [3] | Post-emergence treatment Bulrush (herbicidal effect) [4] | Post-emergence treatment Monochoria (herbicidal effect) [5] | Herbicidal effect Ec [6] | Herbicidal effect Vp [7] | Herbicidal effect Ga [8] | Herbicidal effect Xs [9] | Herbicidal effect Am [10] | Herbicidal effect At [11] | Phytotoxicity So [12] | Phytotoxicity Wh [13] | Herbicidal effect Ec [14] | Herbicidal effect Vp [15] | Herbicidal effect Ga [16] | Herbicidal effect Xs [17] | Herbicidal effect Am [18] | Herbicidal effect At [19] | Phytotoxicity So [20] | further results
CCCNC(=O)c1nc2occc2cc1C(=O)Nc1c(CC)ccc(Cl)c1CC [compound 775] | 5 (Weed-killing rate is 100%.) | 5 (Weed-killing rate is 100%.) | 5 (Weed-killing rate is 100%.) | 5 (Weed-killing rate is 100%.) | 5 (Weed-killing rate is 100%.) | 5 (Weed-killing rate is 100%.) | 5 (Weed-killing rate is 100%.) | 5 (Weed-killing rate is 100%.) | 5 (Weed-killing rate is 100%.) | 5 (Weed-killing rate is 100%.) | 5 (Weed-killing rate is 100%.) | 5 (Crop-killing rate is 100%.) | 5 (Crop-killing rate is 100%.) | 5 (Weed-killing rate is 100%.) | 5 (Weed-killing rate is 100%.) | 5 (Weed-killing rate is 100%.) | 5 (Weed-killing rate is 100%.) | 5 (Weed-killing rate is 100%.) | 5 (Weed-killing rate is 100%.) | 5 (Crop-killing rate is 100%.) | Phytotoxicity Wh [21]: 5 (Crop-killing rate is 100%.)
Cc1c(Cl)cccc1NC(=O)c1cc2ccoc2nc1C(=O)NC1CCCC1 [compound 796] | 5 (Weed-killing rate is 100%.) | 5 (Weed-killing rate is 100%.) | 5 (Weed-killing rate is 100%.) | 5 (Weed-killing rate is 100%.) | 5 (Weed-killing rate is 100%.) | 5 (Weed-killing rate is 100%.) | 5 (Weed-killing rate is 100%.) | 5 (Weed-killing rate is 100%.) | 4 (Weed-killing rate is 90-99%.) | 5 (Weed-killing rate is 100%.) | 5 (Weed-killing rate is 100%.) | 4 (Crop-killing rate is 90-99%.) | 5 (Crop-killing rate is 100%.) | 5 (Weed-killing rate is 100%.) | 5 (Weed-killing rate is 100%.) | 4 (Weed-killing rate is 90-99%.) | 4 (Weed-killing rate is 90-99%.) | 5 (Weed-killing rate is 100%.) | 5 (Weed-killing rate is 100%.) | 4 (Crop-killing rate is 90-99%.) | Phytotoxicity Wh [21]: 4 (Crop-killing rate is 90-99%.)
CCNC(=O)c1nc2sccc2cc1C(=O)Nc1c(CC)ccc(Cl)c1CC [compound 798] | 5 (Weed-killing rate is 100%.) | 5 (Weed-killing rate is 100%.) | 5 (Weed-killing rate is 100%.) | 5 (Weed-killing rate is 100%.) | 5 (Weed-killing rate is 100%.) | 5 (Weed-killing rate is 100%.) | 5 (Weed-killing rate is 100%.) | 5 (Weed-killing rate is 100%.) | 5 (Weed-killing rate is 100%.) | 5 (Weed-killing rate is 100%.) | 5 (Weed-killing rate is 100%.) | 4 (Crop-killing rate is 90-99%.) | 5 (Crop-killing rate is 100%.) | 5 (Weed-killing rate is 100%.) | 5 (Weed-killing rate is 100%.) | 5 (Weed-killing rate is 100%.) | 5 (Weed-killing rate is 100%.) | 5 (Weed-killing rate is 100%.) | 5 (Weed-killing rate is 100%.) | 4 (Crop-killing rate is 90-99%.) | Phytotoxicity Wh [21]: 5 (Crop-killing rate is 100%.)
CCCNC(=O)c1nc2sccc2cc1C(=O)Nc1c(CC)ccc(Cl)c1CC [compound 799] | 5 (Weed-killing rate is 100%.) | 5 (Weed-killing rate is 100%.) | 5 (Weed-killing rate is 100%.) | 5 (Weed-killing rate is 100%.) | 5 (Weed-killing rate is 100%.) | 5 (Weed-killing rate is 100%.) | 5 (Weed-killing rate is 100%.) | 5 (Weed-killing rate is 100%.) | 5 (Weed-killing rate is 100%.) | 5 (Weed-killing rate is 100%.) | 5 (Weed-killing rate is 100%.) | 5 (Crop-killing rate is 100%.) | 5 (Crop-killing rate is 100%.) | 5 (Weed-killing rate is 100%.) | 5 (Weed-killing rate is 100%.) | 5 (Weed-killing rate is 100%.) | 5 (Weed-killing rate is 100%.) | 5 (Weed-killing rate is 100%.) | 5 (Weed-killing rate is 100%.) | 5 (Crop-killing rate is 100%.) | Phytotoxicity Wh [21]: 5 (Crop-killing rate is 100%.)
Cc1c(Cl)cccc1NC(=O)c1cc2ccsc2nc1C(=O)NC1CCCC1 [compound 811] | 5 (Weed-killing rate is 100%.) | 5 (Weed-killing rate is 100%.) | 5 (Weed-killing rate is 100%.) | 5 (Weed-killing rate is 100%.) | 5 (Weed-killing rate is 100%.) | 5 (Weed-killing rate is 100%.) | 5 (Weed-killing rate is 100%.) | 5 (Weed-killing rate is 100%.) | 5 (Weed-killing rate is 100%.) | 5 (Weed-killing rate is 100%.) | 5 (Weed-killing rate is 100%.) | 4 (Crop-killing rate is 90-99%.) | 5 (Crop-killing rate is 100%.) | 5 (Weed-killing rate is 100%.) | 5 (Weed-killing rate is 100%.) | 4 (Weed-killing rate is 90-99%.) | 4 (Weed-killing rate is 90-99%.) | 5 (Weed-killing rate is 100%.) | 5 (Weed-killing rate is 100%.) | 4 (Crop-killing rate is 90-99%.) | Phytotoxicity Wh [21]: 5 (Crop-killing rate is 100%.)
